≈ marks a conversion by molar mass, not a printed value. Like-named read-outs stand apart in the source and are kept apart here.
Tests used:
in vitro = details: human, hep-2 cells
[1] = tested on: respiratory syncytial virus RSVA2 (subgroup A); assay: Anti-RSV activity (RSVA2) in HEp-2 cells, crystal violet staining of cytopathic effect; format: cell-based; details: for EC50 / IC50: human respiratory syncytial virus; for EC50: read-out: Anti-RSVA2 ED50; for activity against subgroup A (RSVA2): in words
[2] = tested on: respiratory syncytial virus RSV-9320 (subgroup B); assay: Anti-RSV activity (RSV-9320) in HEp-2 cells; format: cell-based; details: for activity against subgroup B (RSV-9320): in words; for IC50: human respiratory syncytial virus
[3] = Cellular toxicity, minimal toxic dose that inhibits all growth, MRC-5; format: cell-based; details: human, mrc-5 cells
Method: (§1) The cytotoxic activities for the compounds of Examples 1 and 2, amantadine and ribavirin were determined in five different cell lines.

FluA/WSN = assay: Anti-flu activity against FluA/WSN in MDCK cells; format: cell-based, influenza A virus
[4] = Cellular toxicity, minimal toxic dose that inhibits all growth, A549; format: cell-based; details: human, a549 cells
Method: as §1

[5] = Cellular toxicity, minimal toxic dose that inhibits all growth, MDCK; format: cell-based, Canine; details: dog
Method: as §1

[6] = Cellular toxicity, minimal toxic dose that inhibits all growth, HEp-2; format: cell-based; details: human, hep-2 cells
Method: as §1

[7] = Cellular toxicity, minimal toxic dose that inhibits all growth, Vero; format: cell-based; details: monkey, vero cells
Method: as §1

[8] = Cellular toxicity (TD50) in the anti-RSV test; details: human, hep-2 cells
[9] = Solubility at 100 μg/ml (footnote of Table 4); format: physicochemical; details: footnote a of Table 4
[10] = 72 h, Table 2, HEp-2 cells, compound added 2 h before infection, 3 days
[11] = Table 3, HEp-2 cells, read-out: Median Inhibitory Concentration (IC50), RSV-9320
[12] = Table 3, HEp-2 cells, read-out: Median Inhibitory Concentration (IC50), RSVA2
[13] = HEp-2, read-out: Median Inhibitory Concentration (IC50), RSV-9320
[14] = Table 4, MRC-5, read-out: Minimal Toxic Dose that Inhibits All Growth, MRC-5
[15] = Table 4, A549, read-out: Minimal Toxic Dose that Inhibits All Growth, A549
[16] = Table 4, MDCK, read-out: Minimal Toxic Dose that Inhibits All Growth, MDCK
[17] = Table 4, HEp-2, read-out: Minimal Toxic Dose that Inhibits All Growth, HEp-2
[18] = Table 4, Vero, read-out: Minimal Toxic Dose that Inhibits All Growth, Vero

Cc1nc(=O)c(Br)c(NCc2ccsc2)[nH]1 [Compound 11]
CC50 at 72 h (in vitro): > 16 µg/mL
EC50 [1, 10]: 0.5 µg/mL (≈ 1.67 µM)

Cc1nc(=O)c(C#N)c(NCCc2cccnc2)[nH]1 [Compound 1]
activity against subgroup B (RSV-9320) ([2]; HEp-2 cells): active
IC50 [2, 11]: ≤ 0.16 µg/mL
MCC [3]: 100 µg/mL
anti-flu activity against FluA/WSN (FluA/WSN): inactive
MCC [4]: > 100 µg/mL
MCC ([5]; mdck): > 100 µg/mL
MCC [6]: > 100 µg/mL
MCC [7]: > 100 µg/mL
CC50 at 72 h (in vitro): > 16 µg/mL
activity against subgroup A (RSVA2) ([1]; HEp-2 cells): active
EC50 [1, 10]: 0.05 µg/mL (≈ 0.196 µM)
IC50 [1, 12]: ≤ 0.16 µg/mL

Cc1nc(=O)c(Br)c(NCCc2cccnc2)[nH]1 [Compound 8]
CC50 at 72 h (in vitro): > 16 µg/mL
EC50 [1, 10]: 0.005 µg/mL (≈ 0.0162 µM)

Cc1nc(=O)c(F)c(NCc2cccnc2)[nH]1 [Compound 15]
CC50 at 72 h (in vitro): > 16 µg/mL
EC50 [1, 10]: 0.05 µg/mL (≈ 0.213 µM)

Cc1nc(=O)c(C#N)c(NCc2ccccc2)[nH]1 [Compound 5]
CC50 at 72 h (in vitro): > 16 µg/mL
EC50 [1, 10]: 1.6 µg/mL (≈ 6.66 µM)

CCCN(CCC)CCNc1[nH]c(C)nc(=O)c1Br [Compound 9]
CC50 at 72 h (in vitro): > 16 µg/mL
EC50 [1, 10]: 1.6 µg/mL (≈ 4.83 µM)

CC(C)(C)c1nc(O)c(C#N)c(NCc2cccnc2)n1 [Compound 3]
CC50 at 72 h (in vitro): > 16 µg/mL
EC50 [1, 10]: 1.6 to 5 µg/mL (≈ 5.65 to 17.6 µM)

NC12CC3CC(CC(C3)C1)C2 [Amantadine, amantadine, reference compound]
IC50 [2, 13]: 16 µg/mL (≈ 106 µM)
CC50 at 72 h [8]: 100 µg/mL (≈ 661 µM)
MCC [3, 14]: 100 µg/mL
MCC [4, 15]: > 100 µg/mL
MCC [5, 16]: > 100 µg/mL
MCC [6, 17]: 100 µg/mL
MCC [7, 18]: 100 µg/mL
EC50 ([1]; HEp-2, 72 h): 50 µg/mL (≈ 331 µM)

COc1ccc(Br)cc1CCNc1[nH]c(C)nc(=O)c1Br [Compound 14]
CC50 at 72 h (in vitro): > 16 µg/mL
EC50 [1, 10]: 0.5 µg/mL (≈ 1.2 µM)

Cc1nc(=O)c(Br)c(NCCN(C)C)[nH]1 [Compound 16]
CC50 at 72 h (in vitro): > 16 µg/mL
EC50 [1, 10]: 0.16 µg/mL (≈ 0.582 µM)

NC(=O)c1ncn([C@@H]2O[C@H](CO)[C@@H](O)[C@H]2O)n1 [Ribavirin, ribavirin, reference compound]
IC50 [2, 13]: 5 µg/mL (≈ 20.5 µM)
CC50 at 72 h [8]: 50 µg/mL (≈ 205 µM)
MCC [3, 14]: 100 µg/mL
MCC [4, 15]: 100 µg/mL
MCC [5, 16]: 100 µg/mL
MCC [6, 17]: 50 µg/mL
MCC [7, 18]: 100 µg/mL
EC50 ([1]; HEp-2, 72 h): 1.6 to 5 µg/mL (≈ 6.55 to 20.5 µM)
IC50 ([1]; HEp-2, read-out: Median Inhibitory Concentration (IC50), RSVA2): 1.6 to 5 µg/mL (≈ 6.55 to 20.5 µM)

Cc1nc(NCc2cncc(Br)c2)c(Br)c(=O)[nH]1 [Compound 17]
CC50 at 72 h (in vitro): > 16 µg/mL
EC50 [1, 10]: 0.016 µg/mL (≈ 0.0428 µM)

Cc1nc(=O)c(Cl)c(NCc2cncc(Br)c2)[nH]1 [Compound 13]
CC50 at 72 h (in vitro): > 16 µg/mL
EC50 [1, 10]: 0.016 µg/mL (≈ 0.0485 µM)

Cc1nc(=O)c(Br)c(NCc2cncc(C#N)c2)[nH]1 [Compound 2]
activity against subgroup B (RSV-9320) ([2]; HEp-2 cells): active
IC50 [2, 11]: ≤ 0.16 µg/mL
MCC [3]: > 50 µg/mL
anti-flu activity against FluA/WSN (FluA/WSN): inactive
MCC [4]: > 50 µg/mL
solubility at 100 μg/ml [9]: Not completely soluble
MCC ([5]; mdck): > 50 µg/mL
MCC [6]: 50 µg/mL
MCC [7]: > 50 µg/mL
CC50 at 72 h (in vitro): > 16 µg/mL
activity against subgroup A (RSVA2) ([1]; HEp-2 cells): active
EC50 [1, 10]: 0.05 µg/mL (≈ 0.156 µM)
IC50 [1, 12]: ≤ 0.16 µg/mL

Cc1nc(=O)c(C#N)c(NCCN2CCCC2)[nH]1 [Compound 7]
CC50 at 72 h (in vitro): 16 µg/mL (≈ 64.7 µM)
EC50 [1, 10]: 1.6 µg/mL (≈ 6.47 µM)

C=CCOc1ccc(CCNc2[nH]c(C)nc(=O)c2Br)cc1OC [Compound 12]
CC50 at 72 h (in vitro): > 16 µg/mL
EC50 [1, 10]: 0.5 µg/mL (≈ 1.27 µM)

Cc1nc(=O)c(Br)c(NCc2ccc3c(c2)OCO3)[nH]1 [Compound 10]
CC50 at 72 h (in vitro): > 16 µg/mL
EC50 [1, 10]: 0.05 µg/mL (≈ 0.148 µM)

Cc1nc(O)c(C#N)c(NCCc2ccncc2)n1 [Compound 4]
CC50 at 72 h (in vitro): > 16 µg/mL
EC50 [1, 10]: 0.16 µg/mL (≈ 0.627 µM)

Cc1nc(=O)c(C#N)c(NCCN(C)C)[nH]1 [Compound 6]
CC50 at 72 h (in vitro): > 16 µg/mL
EC50 [1, 10]: 5 µg/mL (≈ 22.6 µM)

Source: patent US5256668A, “Aminopyrimidine derivatives as antiviral agents for respiratory syncytial virus” (American Home Products Corporation, priority 1993, dated 1993)
